Measurements published in patent US20100298141A1, “SUBSTITUTED PYRIDINE N-OXIDE HERBICIDES” (E. I. DU PONT DE NEMOURS AND COMPANY, priority 2007, published 2010).

What was measured:
[1] = system: woolly cupgrass; assay: Test C pre-/postemergence test; assay type: in vivo, Eriochloa villosa
Method in brief: (§1)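 Test chemicals were formulated with surfactant in a non-phytotoxic solvent and sprayed both on freshly planted seeds (preemergence) and on 1- to 4-leaf plants of 2–18 cm (postemergence). Flooded-paddy pots received compound directly into 3 cm of standing water, maintained for the test.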

[2] = system: common (oilseed) sunflower; assay: Test C pre-/postemergence test; assay type: in vivo, Helianthus annuus
Method in brief: as §1

[3] = system: corn; assay: Test C pre-/postemergence test; assay type: in vivo, Zea mays
Method in brief: as §1

[4] = system: kochia; assay: Test C pre-/postemergence test; assay type: in vivo, Kochia scoparia
Method in brief: as §1

[5] = system: Italian ryegrass; assay: Test C pre-/postemergence test; assay type: in vivo, Lolium multiflorum
Method in brief: as §1

[6] = system: blackgrass; assay: Test C pre-/postemergence test; assay type: in vivo, Alopecurus myosuroides
Method in brief: as §1

[7] = system: barnyardgrass; assay: Test A pre-/postemergence greenhouse test; assay type: in vivo, Echinochloa crus-galli; conditions: for Plant response rating, Barnyardgrass: 0 to 100 scale where 0 is no effect and 100 is complete control; for Barnyardgrass plant response rating: 0 to 100 scale
Method in brief: (§2)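 Pots of loam–sand soil sown with the test species are sprayed preemergence on the soil surface; emerged seedlings (1–2 leaves, 2–10 cm) are sprayed postemergence at the same time. The vehicle is a non-phytotoxic solvent mixture with surfactant. Injury is scored visually after ~10 d in greenhouse.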

[8] = system: umbrella sedge; assay: Test C flooded paddy test; assay type: in vivo, Cyperus difformis; conditions: Flood
Method in brief: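 Greenhouse pots flooded to 3 cm above soil at time of treatment received compound via the water, which stayed at that level.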

[9] = system: yellow nutsedge; assay: Test C pre-/postemergence test; assay type: in vivo, Cyperus esculentus
Method in brief: as §1

[10] = system: pigweed; assay: Test C pre-/postemergence test; assay type: in vivo, Amaranthus retroflexus
Method in brief: as §1

[11] = system: soybean; assay: Test C pre-/postemergence test; assay type: in vivo, Glycine max
Method in brief: as §1

[12] = system: morningglory; assay: Test C pre-/postemergence test; assay type: in vivo, Ipomoea coccinea
Method in brief: as §1

[13] = system: wheat; assay: Test C pre-/postemergence test; assay type: in vivo, Triticum aestivum
Method in brief: as §1

[14] = system: cocklebur; assay: Test C pre-/postemergence test; assay type: in vivo, Xanthium strumarium; conditions: for Cocklebur plant response rating: preemergence, scale 0 (no effect) to 100 (complete control)
Method in brief: as §1

[15] = system: morningglory; assay: Test A pre-/postemergence greenhouse test; assay type: in vivo, Ipomoea spp.; conditions: for Plant response rating, Morningglory: 0 to 100 scale where 0 is no effect and 100 is complete control; for Morningglory plant response rating: 0 to 100 scale
Method in brief: as §2

[16] = system: green foxtail; assay: Test C pre-/postemergence test; assay type: in vivo, Setaria viridis
Method in brief: as §1

[17] = system: crabgrass; assay: Test C pre-/postemergence test; assay type: in vivo, Digitaria sanguinalis
Method in brief: as §1

[18] = 62 g ai/ha, Preemergence, scale 0 to 100
[19] = 125 g ai/ha, preemergence, scale 0 (no effect) to 100 (complete control)
[20] = Postemergence, 62 g ai/ha, scale 0 to 100, 0 no effect, 100 complete control
[21] = Postemergence, 125 g ai/ha, scale 0 to 100, 0 no effect, 100 complete control
[22] = Postemergence, 250 g ai/ha, scale 0 to 100, 0 no effect, 100 complete control
[23] = Preemergence, 31 g ai/ha, scale 0 to 100 (0 no effect, 100 complete control)
[24] = preemergence, 250 g ai/ha, scale 0 (no effect) to 100 (complete control)
[25] = Postemergence, 500 g ai/ha, 0 is no effect, 100 is complete control
[26] = Preemergence, 125 g ai/ha, 0 no effect, 100 complete control

Cn1nc(C(F)(F)F)c(C[S+]([O-])c2ccc(Cl)c[n+]2[O-])c1OCC(F)(F)F (racemic) [Compound 62]
Cupgrass, Woolly plant response rating [1, 18]: 70 | Cupgrass, Woolly plant response rating [1, 19]: 100 | Plant response rating (0 to 100), Cupgrass, Woolly ([1]; Postemergence, 31 g ai/ha): 0 | Plant response rating, Cupgrass, Woolly [1, 20]: 0 | Plant response rating, Cupgrass, Woolly [1, 21]: 0 | Plant response rating, Cupgrass, Woolly [1, 22]: 50 | Plant response rating, Cupgrass, Woolly [1, 23]: 0 | Cupgrass, Woolly plant response rating [1, 24]: 100 | Sunflower plant response rating [2, 18]: 75 | Sunflower plant response rating [2, 19]: 80 | Plant response rating, Sunflower [2, 23]: 50 | Sunflower plant response rating [2, 24]: 80 | Corn plant response rating [3, 18]: 98 | Corn plant response rating [3, 19]: 100 | Plant response rating (0 to 100), Corn ([3]; Postemergence, 31 g ai/ha): 0 | Plant response rating, Corn [3, 20]: 0 | Plant response rating, Corn [3, 21]: 0 | Plant response rating, Corn [3, 22]: 10 | Plant response rating, Corn [3, 23]: 80 | Corn plant response rating [3, 24]: 100 | Kochia plant response rating [4, 18]: 90 | Kochia plant response rating [4, 19]: 100 | Plant response rating (0 to 100), Kochia ([4]; Postemergence, 31 g ai/ha): 0 | Plant response rating, Kochia [4, 20]: 0 | Plant response rating, Kochia [4, 21]: 0 | Plant response rating, Kochia [4, 22]: 10 | Plant response rating, Kochia [4, 23]: 85 | Kochia plant response rating [4, 24]: 100 | Ryegrass, Italian plant response rating [5, 18]: 85 | Ryegrass, Italian plant response rating [5, 19]: 90 | Plant response rating (0 to 100), Ryegrass, Italian ([5]; Postemergence, 31 g ai/ha): 0 | Plant response rating (0 to 100), Ryegrass, Italian ([5]; Postemergence, 62 g ai/ha): 0 | Plant response rating, Ryegrass, Italian [5, 21]: 80 | Plant response rating, Ryegrass, Italian [5, 22]: 90 | Plant response rating, Ryegrass, Italian [5, 23]: 70 | Ryegrass, Italian plant response rating [5, 24]: 100 | Blackgrass plant response rating [6, 18]: 98 | Blackgrass plant response rating [6, 19]: 100 | Plant response rating (0 to 100), Blackgrass ([6]; Postemergence, 31 g ai/ha): 40 | Plant response rating, Blackgrass [6, 20]: 40 | Plant response rating, Blackgrass [6, 21]: 60 | Plant response rating, Blackgrass [6, 22]: 80 | Plant response rating, Blackgrass [6, 23]: 90 | Blackgrass plant response rating [6, 24]: 100 | Plant response rating, Barnyardgrass ([7]; Postemergence, 125 g ai/ha): 80 | Barnyardgrass plant response rating [7, 25]: 90 | Barnyardgrass plant response rating [7, 26]: 90 | Plant response rating, Barnyardgrass ([7]; Preemergence, 500 g ai/ha): 100 | Plant response rating, Sedge, Umbrella ([8]; 62 g ai/ha, scale 0 to 100 (0 no effect, 100 complete control)): 0 | Plant response rating, Sedge, Umbrella ([8]; 250 g ai/ha, scale 0 to 100, 0 no effect, 100 complete control, 13 to 15 days): 100 | Nutsedge, Yellow plant response rating [9, 18]: 40 | Nutsedge, Yellow plant response rating [9, 19]: 70 | Plant response rating (0 to 100), Nutsedge, Yellow ([9]; Postemergence, 31 g ai/ha): 0 | Plant response rating, Nutsedge, Yellow [9, 20]: 0 | Plant response rating, Nutsedge, Yellow [9, 21]: 0 | Plant response rating, Nutsedge, Yellow [9, 22]: 0 | Plant response rating, Nutsedge, Yellow [9, 23]: 0 | Nutsedge, Yellow plant response rating [9, 24]: 100 | Pigweed plant response rating [10, 18]: 100 | Pigweed plant response rating [10, 19]: 100 | Plant response rating (0 to 100), Pigweed ([10]; Postemergence, 31 g ai/ha): 0 | Plant response rating (0 to 100), Pigweed ([10]; Postemergence, 62 g ai/ha): 0 | Plant response rating, Pigweed [10, 21]: 0 | Plant response rating, Pigweed [10, 22]: 5 | Plant response rating, Pigweed [10, 23]: 80 | Pigweed plant response rating [10, 24]: 100 | Soybean plant response rating [11, 18]: 100 | Soybean plant response rating [11, 19]: 100 | Plant response rating (0 to 100), Soybean ([11]; Postemergence, 31 g ai/ha): 30 | Plant response rating (0 to 100), Soybean ([11]; Postemergence, 62 g ai/ha): 50 | Plant response rating, Soybean [11, 21]: 60 | Plant response rating, Soybean [11, 23]: 70 | Morningglory plant response rating [12, 18]: 90 | Morningglory plant response rating [12, 19]: 100 | Plant response rating (0 to 100), Morningglory ([12]; Postemergence, 31 g ai/ha): 0 | Plant response rating, Morningglory [12, 20]: 0 | Plant response rating, Morningglory [12, 21]: 0 | Plant response rating, Morningglory [12, 22]: 30 | Plant response rating, Morningglory [12, 23]: 50 | Morningglory plant response rating [12, 24]: 100 | Wheat plant response rating [13, 18]: 55 | Wheat plant response rating [13, 19]: 80 | Plant response rating (0 to 100), Wheat ([13]; Postemergence, 31 g ai/ha): 0 | Plant response rating (0 to 100), Wheat ([13]; Postemergence, 62 g ai/ha): 10 | Plant response rating, Wheat [13, 21]: 55 | Plant response rating, Wheat [13, 22]: 60 | Plant response rating, Wheat [13, 23]: 40 | Wheat plant response rating [13, 24]: 95 | Cocklebur plant response rating ([14]; 125 g ai/ha): 30 | Plant response rating (0 to 100), Cocklebur ([14]; Postemergence, 31 g ai/ha): 0 | Plant response rating, Cocklebur [14, 20]: 0 | Plant response rating, Cocklebur [14, 21]: 0 | Plant response rating, Cocklebur [14, 22]: 0 | Plant response rating, Cocklebur [14, 23]: 0 | Cocklebur plant response rating ([14]; 250 g ai/ha): 60 | Plant response rating, Morningglory ([15]; Postemergence, 125 g ai/ha): 90 | Morningglory plant response rating [15, 25]: 100 | Morningglory plant response rating [15, 26]: 90 | Plant response rating, Morningglory ([15]; Preemergence, 500 g ai/ha): 100 | Foxtail, Green plant response rating [16, 18]: 100 | Foxtail, Green plant response rating [16, 19]: 100 | Plant response rating (0 to 100), Foxtail, Green ([16]; Postemergence, 31 g ai/ha): 0 | Plant response rating, Foxtail, Green [16, 20]: 20 | Plant response rating, Foxtail, Green [16, 21]: 40 | Plant response rating, Foxtail, Green [16, 22]: 80 | Plant response rating, Foxtail, Green [16, 23]: 80 | Foxtail, Green plant response rating [16, 24]: 100 | Crabgrass, Large plant response rating [17, 18]: 80 | Crabgrass, Large plant response rating [17, 19]: 100 | Plant response rating (0 to 100), Crabgrass, Large ([17]; Postemergence, 31 g ai/ha): 0 | Plant response rating, Crabgrass, Large [17, 20]: 0 | Plant response rating, Crabgrass, Large [17, 21]: 0 | Plant response rating, Crabgrass, Large [17, 22]: 50 | Plant response rating, Crabgrass, Large [17, 23]: 60 | Crabgrass, Large plant response rating [17, 24]: 100
